{
  "source": "patent US20090220490A1",
  "about": "“Compositions and Assays for Inhibiting HCV Infection” (priority 2006, published 2009)",
  "assay_type_in_all_cases": "cell-based",
  "key": {"[1]": {"test_system": "HCV genotype 3", "experiment": "HCV replication (HCV RNA expression) in serum-derived HCV-infected human hepatocyte cultures", "details": "peptide 90 μM (text: picomolar), treated 4 hr after the HCV infection (FIG. 13F)", "source_text": "(§1) Sera from 25 HCV-infected patients and 3 control subjects were obtained at the VA San Diego Healthcare System Clinical Laboratory. The subject population included individuals with chronic HCV infection, viral load>200,000 IU/ml and genotypes 1 (N: 15), 2 (N: 3), 3 (N: 4), or 4 (N: 3), but negative for Hepatitis A and B, CMV and HIV. Control sera were obtained from subjects negative for Hepatitis A, B and C, CMV and HIV. In different experiments, the inoculums fluctuated between 3,728 and 68,000 HCV viral particles.\n(§2) The hepatocytes were cultured for serum-derived HCV infection under the following conditions: 1) the matrix was rat-tail collagen (BD); 2) the collagen matrix was prepared within 24 hr of hepatocyte plating, at a concentration of 50 μg/ml or greater; 3) the culture plates were coated with polylysine; 4) the rinsing of the matrix was minimal; 5) the suspended hepatocytes were allowed to attach in 20% fetal calf serum for not more than 18 hr; 6) the hepatocyte-specific media was given for at least 24 hr prior to the HCV infection; 7) the hepatocytes were >85% confluent until the time of infection; 8) hepatocyte cultures with >5% apoptosis by annexin-V assays and/or increases>3-fold in ALT were discarded; and 9) hepatocyte media was added every 48 hr.\n(§3) Total RNA was isolated from HCV infected primary human hepatocytes using the Ultraspec TM-II RNA kit from Biotecx Inc. (Texas) following the manufacturers protocol. The cDNA synthesis was performed using Stratascript RT MMuLV RNAse H free and Stratascript RT buffer (Stratagene), per manufacturers protocol, using:\n(§4) PCR was performed on the cDNA using the cDNA reaction mixture with Qiagen's HotStar High Fidelity polymerase. Amplicons were run on 2% TBE agarose gels and imaged on a KODAK Imaging station."}, "[2]": {"test_system": "HCV genotype 1", "experiment": "HCV replication (HCV RNA expression) in serum-derived HCV-infected human hepatocyte cultures", "source_text": "as §1, §2, §3, §4"}, "[3]": {"test_system": "HCV genotype 4", "experiment": "HCV replication (HCV RNA expression) in serum-derived HCV-infected human hepatocyte cultures", "details": "peptide 90 μM (text: picomolar), treated 4 hr after the HCV infection (FIG. 13F)", "source_text": "as §1, §2, §3, §4"}, "[4]": {"test_system": "endogenous AP-50 phosphorylation on Thr156", "experiment": "confocal microscopy of AP-50 phosphoT156 in HCV-infected human hepatocyte cultures", "details": "HCV genotype 1-infected human hepatocyte cultures, 72 hr, epitope specific antibodies (FIG. 13D)", "method": "(§5) Fluorescent labels were observed using a triple-channel fluorescence microscope or a confocal microscope. Fluorochromes utilized included TOPRO-3 (blue), Alexa 488 (green) and Alexa 594 (red) (Molecular Probes). The percentage of HCV infected hepatocytes was determined by confocal microscopy using HCV E2 and core specific antibodies (Buck, et al., Mol. Cell. 8, 807 (2001); Rudel et al., Science 276, 1571 (1997). AP-50 and AP-50-phosphoT^157 were detected with specific antibodies (Zhang et al., Traffic 6, 1103 (2005); Smythe, Nature 431, 641 (2004)). At least 100 cells were analyzed per experimental point (Buck et al. EMBO J 20, 6712 (2001)). The nuclear morphology were analyzed by staining cells with TOPRO-3 ([…]). Two observers analyzed each immunofluorescent study.\n(§6) Primary hepatocytes were fixed with 50/50 acetone/methanol at −20° C. for 20 minutes and allowed to air dry at room temperature. Blocking of non-specific epitopes was done with PBS+3% BSA for 30 minutes at room temperature. Primary antibodies were used at 1:100 dilutions in PBS+3% BSA, for 1 hour at room temperature washes were done with PBS. […] At least 100 cells were analyzed per experimental point. We analyzed the nuclear morphology by staining cells with TO-PRO-3 (Molecular Probes). […]"}, "[5]": {"test_system": "human hepatocytes", "experiment": "cell toxicity by release of lactic dehydrogenase (LDH) into the medium", "method": "Toxicity of AP-50 peptides to human hepatocyte cultures was determined by measuring lactic dehydrogenase (Sigma) in the medium."}, "[6]": {"test_system": "HCV-infected human hepatocytes", "experiment": "confocal microscopy of FITC-labelled peptide: cell entry and association with HCV E2", "method": "as §5, §6"}},
  "note": "Entries after “also recorded” stand apart in the source; their conditions may differ. Where a SMILES comes first, the peptide text is derived from it. The star is where a group is joined. FITC = O=C1OC2(c3ccc(O)cc3Oc3cc(O)ccc32)c2ccc(NC(=S)*)cc21",
  "data": [
    {"smiles": "CC(C)[C@H](NC(=O)[C@H](CCC(N)=O)NC(=O)[C@H](CCCNC(=N)N)NC(=O)[C@H](CCCNC(=N)N)NC(=O)[C@H](CCCNC(=N)N)NC(=O)[C@H](CCC(N)=O)NC(=O)[C@H](CCCNC(=N)N)NC(=O)[C@H](CCCNC(=N)N)NC(=O)[C@H](CCCCN)NC(=O)[C@H](CCCCN)NC(=O)[C@H](CCCNC(=N)N)NC(=O)CNC(=O)[C@H](Cc1ccc(O)cc1)NC(=O)CNC(=O)CNC(=O)CNC(=O)CNC(=S)Nc1ccc2c(c1)C(=O)OC21c2ccc(O)cc2Oc2cc(O)ccc21)C(=O)N[C@@H](C)C(=O)NCC(=O)N[C@@H](CCC(N)=O)C(=O)O", "note": "[AP-50 peptide] ({FITC}-GGGGYGRKKRRQRRRQVAGQ-OH; N-terminus and C-terminus assumed)", "values": [
      {"measurement": "HCV replication, detected by expression of HCV RNA at 72 hr", "setting": "[1]", "result": "inhibited HCV replication"},
      {"measurement": "HCV replication, detected by expression of HCV RNA", "setting": "[2]; peptide 90 pM, 72 hr, given at time zero of the infection (FIG. 13E)", "result": "blocked HCV replication; also recorded: inhibited HCV replication"},
      {"measurement": "HCV replication, detected by expression of HCV RNA at 72 hr", "setting": "[2]; peptide 90 μM (text: picomolar), treated 4 hr after the HCV infection (FIG. 13F)", "result": "inhibited HCV replication"},
      {"measurement": "HCV replication, detected by expression of HCV RNA at 72 hr", "setting": "[3]", "result": "inhibited HCV replication"},
      {"measurement": "phosphorylation of endogenous AP-50 on Thr156", "setting": "[4]", "result": "inhibited the phosphorylation; also recorded: blocked phosphorylation"},
      {"measurement": "LDH values / viability of HCV-infected hepatocytes treated with peptide", "setting": "[5]; human hepatocytes infected with HCV genotypes 1, 3 or 4, 72 hr, relative to control (FIG. 14)", "result": "improving the viability; also recorded: normalized"},
      {"measurement": "cellular toxicity (LDH release into the medium)", "setting": "[5]; human hepatocytes treated with peptide for 72 hr (FIG. 14)", "result": "not toxic"},
      {"measurement": "association with HCV E2 in cells (confocal microscopy, merge)", "setting": "[6]; HCV-infected human hepatocytes, 72 hr (FIG. 13B)", "result": "associated with HCV E2"},
      {"measurement": "cell permeability (intracellular FITC fluorescence)", "setting": "[6]; human hepatocytes, 72 hr, HCV genotype 1 (FIG. 13B)", "result": "cell permeable; also recorded: intracellular"}
    ]}
  ]
}
